Assay [1] relates to Soy. The assay can be described thus: Tolerance rates for soybean (injury score 0-9).
Assay [2] concerns Corn. Put plainly: Tolerance rates for corn (injury score 0-9).

“And” between values parts separate entries of the source, which are not always exact repeats. Identical values can stand only once.

As for `C#CCN1C(=O)COc2cc(F)c(N3C(=O)C4=C(CCCC4)C3=O)cc21` [flumioxazin], the injury score in assay [1] (Flumioxazin 150 g ai/ha, amino acid substitution L397D_F420V Event A, SEQ ID NO 2) was 9 and 6 and 5 and 4; in assay [1] (Flumioxazin 150 g ai/ha, amino acid substitution L397D_F420V Event B, SEQ ID NO 2), 5 and 6 and 4; in assay [1] (Flumioxazin 150 g ai/ha, amino acid substitution none, SEQ ID NO none) it was 9.

Take `CS(=O)(=O)NC(=O)c1cc(Oc2ccc(C(F)(F)F)cc2Cl)ccc1[N+](=O)[O-]` [fomesafen]: the injury score in assay [1] (Fomesafen 600 g ai/ha, amino acid substitution L397D_F420V Event A, SEQ ID NO 2) is 1 and 2 and 0 and 4; in assay [1] (Fomesafen 600 g ai/ha, amino acid substitution L397D_F420V Event B, SEQ ID NO 2), 2 and 4 and 1 and 3; in assay [1] (Fomesafen 600 g ai/ha, amino acid substitution none, SEQ ID NO none), 5 and 4.

As for `Cc1nn(-c2cc(NS(C)(=O)=O)c(Cl)cc2Cl)c(=O)n1C(F)F` [sulfentrazone], the injury score is 9 and 6 and 3 and 5 in assay [1] (Sulfentrazone 350 g ai/ha, amino acid substitution L397D_F420V Event A, SEQ ID NO 2); 4 and 5 and 6 in assay [1] (Sulfentrazone 350 g ai/ha, amino acid substitution L397D_F420V Event B, SEQ ID NO 2); 9 and 7 and 8 in assay [1] (Sulfentrazone 350 g ai/ha, amino acid substitution none, SEQ ID NO none); 2 and 3 and 7 and 1 and 4 and 6 in assay [1] (Sulfentrazone 700 g ai/ha, amino acid substitution L397D_F420V Event A, SEQ ID NO 2); 4 and 5 and 6 in assay [1] (Sulfentrazone 700 g ai/ha, amino acid substitution L397D_F420V Event B, SEQ ID NO 2); 9 in assay [1] (Sulfentrazone 700 g ai/ha, amino acid substitution none, SEQ ID NO none).

Take `CCOc1cc(Oc2ccc(C(F)(F)F)cc2Cl)ccc1[N+](=O)[O-]` [Oxyfluorfen]: the injury score in assay [1] (Oxyfluorfen 600 g ai/ha, amino acid substitution L397D_F420V Event A, SEQ ID NO 2) is 4 and 5 and 6 and 9; in assay [1] (Oxyfluorfen 600 g ai/ha, amino acid substitution L397D_F420V Event B, SEQ ID NO 2) it was 6 and 4 and 8 and 5; in assay [1] (Oxyfluorfen 600 g ai/ha, amino acid substitution none, SEQ ID NO none), 8 and 7 and 9; in assay [1] (Oxyfluorfen 1200 g ai/ha, amino acid substitution L397D_F420V Event A, SEQ ID NO 2) it was 5 and 4 and 3; in assay [1] (Oxyfluorfen 1200 g ai/ha, amino acid substitution L397D_F420V Event B, SEQ ID NO 2) it was 5 and 4 and 6; in assay [1] (Oxyfluorfen 1200 g ai/ha, amino acid substitution none, SEQ ID NO none), 9 and 8.

As to `CC(C)N(C)S(=O)(=O)NC(=O)c1cc(-n2c(=O)cc(C(F)(F)F)n(C)c2=O)c(F)cc1Cl` [saflufenacil], in assay [2] (Corn events with PPO L397D, F420M (SEQ ID NO 2), Saflufenacil 25 g ai/ha), the “Tolerance rate (injury score), Saflufenacil 25 g ai/ha” value is 2 and 3 and 1. Moreover, the “Tolerance rate (injury score), Saflufenacil 50 g ai/ha” value in assay [2] (Corn events with PPO L397D, F420M (SEQ ID NO 2), Saflufenacil 50 g ai/ha) is 1 and 2 and 3 and 0. The “Tolerance rate (injury score), Saflufenacil 100 g ai/ha” value in assay [2] (Corn events with PPO L397D, F420M (SEQ ID NO 2), Saflufenacil 100 g ai/ha) is 7 and 3; in assay [2] (Corn events with PPO L397E, F420M (SEQ ID NO 2), Saflufenacil 100 g ai/ha), 1 and 0 and 7; in assay [2] (Corn events with PPO L397Q (SEQ ID NO 2), Saflufenacil 100 g ai/ha), 4 and 5; in assay [2] (Corn events with PPO L397Q, F420M (SEQ ID NO 2), Saflufenacil 100 g ai/ha), 0 and 1; in assay [2] (Corn events with PPO L397Q, F420V (SEQ ID NO 2), Saflufenacil 100 g ai/ha), 4 and 2 and 3 and 7 and 5; in assay [2] (Corn events, amino acid substitution not given, Saflufenacil 100 g ai/ha), 1. The “Tolerance rate (injury score), corn” value in assay [2] (Saflufenacil 25 g ai/ha, corn events 37-53, amino acid substitution not given) is 6 and 7 and 5 and 8 and 4; in assay [2] (Saflufenacil 25 g ai/ha, corn events with PPO substitution F420L (SEQ ID NO 2)), 6 and 7; in assay [2] (Saflufenacil 25 g ai/ha, corn events with PPO substitution F420M (SEQ ID NO 2)) it was 4 and 6 and 8 and 7 and 5; in assay [2] (Saflufenacil 25 g ai/ha, corn events with PPO substitution L397D, F420V (SEQ ID NO 2)), 6 and 5 and 7; in assay [2] (Saflufenacil 25 g ai/ha, corn events with PPO substitution L397E, F420V (SEQ ID NO 2)) it was 1 and 0 and 3; in assay [2] (Saflufenacil 50 g ai/ha, corn events 54-81, amino acid substitution not given) it was 6 and 7 and 4 and 5. Moreover, the “Tolerance rate (injury score), corn” value was 7 and 8 and 6 in assay [2] (Saflufenacil 50 g ai/ha, corn events with PPO substitution F420L (SEQ ID NO 2)); 7 and 6 and 8 in assay [2] (Saflufenacil 50 g ai/ha, corn events with PPO substitution F420M (SEQ ID NO 2)); 4 and 6 and 7 in assay [2] (Saflufenacil 50 g ai/ha, corn events with PPO substitution L397D, F420V (SEQ ID NO 2)); 1 and 0 and 2 and 3 in assay [2] (Saflufenacil 50 g ai/ha, corn events with PPO substitution L397E, F420V (SEQ ID NO 2)); 8 and 7 and 6 in assay [2] (Saflufenacil 100 g ai/ha, corn events with PPO substitution F420L (SEQ ID NO 2)); 0 and 1 and 3 and 2 in assay [2] (Saflufenacil 100 g ai/ha, corn events with PPO substitution L397E, F420V (SEQ ID NO 2)). Further, the injury score in assay [1] (Soy, saflufenacil 12.5 g ai/ha, amino acid substitution F420L, SEQ ID NO 2) was 1 and 0 and 3; in assay [1] (Soy, saflufenacil 12.5 g ai/ha, amino acid substitution L369D, F392V, SEQ ID NO 40), 9 and 7 and 4 and 5 and 6; in assay [1] (Soy, saflufenacil 12.5 g ai/ha, amino acid substitution L397E, SEQ ID NO 2), 5 and 4 and 0 and 3; in assay [1] (Soy, saflufenacil 12.5 g ai/ha, amino acid substitution L397Q, SEQ ID NO 2), 4; in assay [1] (Soy, saflufenacil 12.5 g ai/ha, amino acid substitution none, SEQ ID NO 2) it was 2 and 4 and 7 and 8 and 5; in assay [1] (Soy, saflufenacil 12.5 g ai/ha, amino acid substitution none, SEQ ID NO 40) it was 9 and 3 and 4 and 8 and 7. Moreover, the injury score was 9 and 0 and 2 in assay [1] (Soy, saflufenacil 25 g ai/ha, amino acid substitution F420L, SEQ ID NO 2); 9 and 5 and 6 and 7 and 4 in assay [1] (Soy, saflufenacil 25 g ai/ha, amino acid substitution L369D, F392V, SEQ ID NO 40); 7 and 2 and 9 and 5 and 3 in assay [1] (Soy, saflufenacil 25 g ai/ha, amino acid substitution L397D, SEQ ID NO 2); 3 and 6 and 4 and 5 and 1 in assay [1] (Soy, saflufenacil 25 g ai/ha, amino acid substitution L397E, SEQ ID NO 2); 3 in assay [1] (Soy, saflufenacil 25 g ai/ha, amino acid substitution L397Q, SEQ ID NO 2); 4 and 3 and 7 and 9 and 8 in assay [1] (Soy, saflufenacil 25 g ai/ha, amino acid substitution none, SEQ ID NO 2). Moreover, the injury score in assay [1] (Soy, saflufenacil 25 g ai/ha, amino acid substitution none, SEQ ID NO 40) was 9 and 6; in assay [1] (Soy, saflufenacil 50 g ai/ha, amino acid substitution F420L, SEQ ID NO 2), 9 and 0 and 2; in assay [1] (Soy, saflufenacil 50 g ai/ha, amino acid substitution L369D, F392V, SEQ ID NO 40) it was 9 and 6 and 7 and 5; in assay [1] (Soy, saflufenacil 50 g ai/ha, amino acid substitution L397D, SEQ ID NO 2) it was 9 and 4 and 3 and 6 and 5; in assay [1] (Soy, saflufenacil 50 g ai/ha, amino acid substitution L397E, F420M, SEQ ID NO 2), 1 and 0 and 2; in assay [1] (Soy, saflufenacil 50 g ai/ha, amino acid substitution L397E, SEQ ID NO 2), 3 and 6 and 4 and 7. The injury score in assay [1] (Soy, saflufenacil 50 g ai/ha, amino acid substitution L397Q, F420M, SEQ ID NO 2) is 0 and 6 and 1 and 5 and 4; in assay [1] (Soy, saflufenacil 50 g ai/ha, amino acid substitution L397Q, F420V, SEQ ID NO 2), 0 and 7; in assay [1] (Soy, saflufenacil 50 g ai/ha, amino acid substitution L397Q, SEQ ID NO 2), 8; in assay [1] (Soy, saflufenacil 50 g ai/ha, amino acid substitution none, SEQ ID NO 2), 7 and 8 and 9 and 6; in assay [1] (Soy, saflufenacil 50 g ai/ha, amino acid substitution none, SEQ ID NO 40), 9 and 8; in assay [1] (Soy, saflufenacil 100 g ai/ha, amino acid substitution F420L, SEQ ID NO 2) it was 9. For the same molecule, the injury score in assay [1] (Soy, saflufenacil 100 g ai/ha, amino acid substitution L369D, F392V, SEQ ID NO 40) is 9 and 6; in assay [1] (Soy, saflufenacil 100 g ai/ha, amino acid substitution L397D, SEQ ID NO 2), 9 and 4 and 6 and 5; in assay [1] (Soy, saflufenacil 100 g ai/ha, amino acid substitution L397E, F420M, SEQ ID NO 2), 2 and 0 and 1; in assay [1] (Soy, saflufenacil 100 g ai/ha, amino acid substitution L397Q, F420M, SEQ ID NO 2) it was 0 and 7 and 3 and 6 and 1 and 2; in assay [1] (Soy, saflufenacil 100 g ai/ha, amino acid substitution L397Q, F420V, SEQ ID NO 2) it was 0 and 7.
